By IC50 is commonly meant the concentration at which inhibition is half-maximal.

Where “and” joins values, the source holds several entries; their conditions need not be identical. Equal values may be shown once.

Experimental findings from ChEMBL document CHEMBL1132517, “Nitrobenzyl carbamate prodrugs of enediynes for nitroreductase gene-directed enzyme prodrug therapy (GDEPT)” (Bioorg Med Chem Lett, 1999) are described below.

The test system of assay [1] is SK-OV-3. Briefly: In vitro for cytotoxicity against SKOV-3 cells in the presence of 1 mM NADH co-factor. It is filed as functional, cell-based. The conditions noted are these: Homo sapiens.
Assay [2] deals with SK-OV-3. The experiment in a line: In vitro for cytotoxicity against SKOV-3 cells in the presence of 1 mM NADH co-factor and 1 ug/mL Escherichia coli B nitroreductase (NTR). The format is functional, cell-based. The conditions noted are these: Homo sapiens.
Assay [3] concerns WiDr. Briefly: In vitro cytotoxicity against man colon carcinoma line WiDr cell lines transfected with Escherichia coli B nitroreductase (NTR). It is filed as functional, cell-based. As to conditions: Homo sapiens.
The nature of assay [4]: Ratio of cytotoxicities against SKOV-3 cell line to NTR transfectant. It is filed as functional, SK-OV-3.
A short description of assay [5]: Ratio of cytotoxicities against T78-1 cell line to NTR transfectant. The format is functional.
Assay [6] in a line: (§1) Ratio of cytotoxicities against WiDr cell line to NTR transfectant. It is filed as functional.
Assay [7] can be described thus: Ratio of cytotoxicity against SKOV-3 cells in the absence of co-factor to the cytotoxicity in the presence of co-factor and NTR. The format is functional, SK-OV-3.
Assay [8] is described as follows: Oxygen dependence of cytotoxicity was assessed by clonogenic assay using stirred suspension cultures of AA8 cells after 3h under anoxic conditions. It is filed as functional, Cricetulus griseus, CHO-AA8.
A short description of assay [9]: Oxygen dependence of cytotoxicity was assessed by clonogenic assay using stirred suspension cultures of AA8 cells after 3h under aerobic conditions. It is filed as functional, Cricetulus griseus, CHO-AA8.
The subject of assay [10] is SK-OV-3. The experiment in a line: In vitro cytotoxicity against SKOV-3 cells in the absence of co-factor. The format is functional, cell-based. As to conditions: Homo sapiens.
Assay [11] concerns SK-OV-3. Briefly: In vitro cytotoxicity against SKOV-3 cells in the presence of 1 mM NADH co-factor. The format is functional, cell-based. The conditions noted are these: Homo sapiens.
In assay [12] the test system is SK-OV-3. The experiment in a line: In vitro cytotoxicity against SKOV-3 cells in the presence of 1 mM NADH co-factor and 1 ug/mL Escherichia coli B nitroreductase (NTR). It is filed as functional, cell-based. The conditions noted are these: Homo sapiens.
Assay [13] can be described thus: Oxygen dependence of cytotoxicity was assessed by clonogenic assay using stirred suspension cultures of ERCC-1 mutant UV4 cells after 3h under anoxic conditions. It is filed as functional, Cricetulus griseus.
A short description of assay [14]: Oxygen dependence of cytotoxicity was assessed by clonogenic assay using stirred suspension cultures of ERCC-1 mutant UV4 cells after 8 hr under anoxic conditions. The format is functional, Cricetulus griseus.
Assay [15] in a line: Oxygen dependence of cytotoxicity was assessed by clonogenic assay using stirred suspension cultures of ERCC-1 mutant UV4 cells after 3h under aerobic conditions. It is filed as functional, Cricetulus griseus.
A short description of assay [16]: Oxygen dependence of cytotoxicity was assessed by clonogenic assay using stirred suspension cultures of ERCC-1 mutant UV4 cells after 8 hr under aerobic conditions. It is filed as functional, Cricetulus griseus.
The nature of assay [17]: Ratio of oxygen dependence of cytotoxicities of UV4 cells in aerobic condition to anoxic condition. It is filed as functional.
The test system of assay [18] is T78-1. The experiment in a line: In vitro cytotoxicity against Chinese hamster V79-derived cell line T78-1 transfected with Escherichia coli B nitroreductase (NTR). The format is functional, cell-based. The conditions noted are these: Cricetulus griseus.
Assay [19] is described as follows: Ratio of oxygen dependence of cytotoxicities of AA8 cells in aerobic condition to anoxic condition. The format is functional, Cricetulus griseus, CHO-AA8.
Assay [20] in a line: Oxygen dependence of cytotoxicity was assessed by clonogenic assay using stirred suspension cultures of AA8 cells after 1 hr under anoxic conditions. The format is functional, Cricetulus griseus, CHO-AA8.
The nature of assay [21]: Oxygen dependence of cytotoxicity was assessed by clonogenic assay using stirred suspension cultures of AA8 cells after 4 hr under anoxic conditions. The format is functional, Cricetulus griseus, CHO-AA8.
Assay [22] is described as follows: Oxygen dependence of cytotoxicity was assessed by clonogenic assay using stirred suspension cultures of AA8 cells after 1 hr under aerobic conditions. It is filed as functional, Cricetulus griseus, CHO-AA8.
Assay [23] is described as follows: Oxygen dependence of cytotoxicity was assessed by clonogenic assay using stirred suspension cultures of AA8 cells after 4 hr under aerobic conditions. The format is functional, Cricetulus griseus, CHO-AA8.
For assay [24], the system named is WiDr. Described as §1. The format is functional, Homo sapiens.
Assay [25] can be described thus: Oxygen dependence of cytotoxicity was assessed by clonogenic assay using stirred suspension cultures of ERCC-1 mutant UV4 cells after 1 hr under anoxic conditions. The format is functional, Cricetulus griseus.
A short description of assay [26]: Oxygen dependence of cytotoxicity was assessed by clonogenic assay using stirred suspension cultures of ERCC-1 mutant UV4 cells after 4 hr under anoxic conditions. It is filed as functional, Cricetulus griseus.
A short description of assay [27]: Oxygen dependence of cytotoxicity was assessed by clonogenic assay using stirred suspension cultures of ERCC-1 mutant UV4 cells after 1 hr under aerobic conditions. The format is functional, Cricetulus griseus.
The nature of assay [28]: Oxygen dependence of cytotoxicity was assessed by clonogenic assay using stirred suspension cultures of ERCC-1 mutant UV4 cells after 4 hr under aerobic conditions. It is filed as functional, Cricetulus griseus.

With `NC(=O)c1cc(N2CC2)c([N+](=O)[O-])cc1[N+](=O)[O-]` [TRETAZICAR], the half-inhibitory concentration (IC50) is 760 nM in assay [1], 1010 nM in assay [2] and 565000 nM in assay [3]. Moreover, the Selectivity in [4] came to 357; in [5], 1630; in assay [6], 51; in assay [7], 183.

With `O=C(OCc1ccc([N+](=O)[O-])cc1)N1c2ccccc2[C@@]23O[C@]24CCC[C@H]3C#C/C=C\C#C[C@H]14`, the “C10 N2” value was greater than 100 µM in assay [8], greater than 100 µM in assay [13] and 70 µM in assay [14]. For the same compound, the C10 air was greater than 100 µM in [9], greater than 100 µM in assay [15] and 70 µM in assay [16]. Also, the IC50 is 20400 nM in assay [10]; greater than 20000 nM in assay [11]; 260 nM in assay [12]; 8400 nM in assay [3]; 11100 nM in assay [18]. In [17], the ratio was determined as 1. The Selectivity in assay [4] was 264; in [5], 54; in assay [6], 97; in [7], 95.9.

For `O=C(OCc1ccccc1[N+](=O)[O-])N1c2ccccc2[C@@]23O[C@]24CCC[C@H]3C#C/C=C\C#C[C@H]14`, the “C10 N2” value in [8] came out at 200 µM; in [13], 53 µM. In addition, the entries for the “C10 air/C10 N2” value in assay [19] and in assay [17] were greater than 1.7 and 0.4, respectively. Besides, the C10 air in [9] turned out to be 120 µM; in assay [15], 140 µM. Also, the IC50 is greater than 20000 nM in assay [10]; greater than 20000 nM in assay [11]; greater than 20000 nM in assay [12]; greater than 20000 nM in [3]; 8900 nM in [18]. Besides, the Selectivity in assay [5] came out at 1.9.

For the compound `O=C(OCc1ccc([N+](=O)[O-])cc1)N1c2ccc(OCCO)cc2[C@@]23O[C@]24CCC[C@H]3C#C/C=C\C#C[C@H]14`, the “C10 N2” value in [20] was greater than 100 µM; in assay [21], greater than 100 µM; in [25] it was 60 µM; in [26], 12 µM. In addition, the C10 air in assay [22] was determined as 75 µM; in assay [23], 22 µM; in assay [27], 40 µM; in [28] it was 11 µM. Moreover, the concentration for half-maximal inhibition (IC50) in assay [10] amounted to 500 nM; in assay [11], 500 nM; in [12], 39 nM; in assay [3], 1810 nM; in [18] it was 2400 nM. Further, the Selectivity in assay [24] was found to be 135; in [4] it was 21.3; in assay [5], 111; in [7] it was 13. Further, the “C10 air/C10 N2” value in assay [17] was 1.5 and 1.1.
